Source: publication PMC11459959, “Discovery of new acetamide derivatives of 5-indole-1,3,4-oxadiazol-2-thiol as inhibitors of HIV-1 Tat-mediated viral transcription” (Antimicrobial Agents and Chemotherapy, 2024)

Columns and labels:
HIV-1NL4-3 = assay: HIV-1 replication in A3.01 cells (p24 […]); assay type: cell-based; details: for EC50: Human immunodeficiency virus 1, 72 h, HIV-1NL4-3 MOI 0.1, 3 days; for inhibition of viral replication (in words): fivefold serial dilutions, 3 days
Description: The p24 level from the cell supernatant was subsequently determined using a p24 […] kit (PerkinElmer). In parallel, the cell viability was determined without viral infection because of the viral cytopathic effect. […] In parallel, cell viability was determined. The data (A and B) are presented as the mean ± SD (n = 3). (C) PBMCs (4 × 10^5) infected with HIV-AD8 at an MOI of 0.1 were treated with 1.5 µM of the compounds or ARVs for 3 days. The levels of p24 and cell viability were subsequently determined. (D) J1.1 cells were cultured with the compounds ([…]) under 50 ng/mL phorbol myristate acetate (PMA) treatment for 2 days. The level of p24 was subsequently determined. (E) J-Lat 6.3 cells were treated with the compounds (1.5 µM) under 1 µg/mL of PMA for 2 days. The GFP-positive cell population was analyzed using flow cytometry. The data are represented as a value relative to the DMSO-treated vehicle (D) and a percent of the GFP^+ cell population (E) as mean ± SD (n = 3).
The inhibitory effects of the compounds on viral replication were determined with some minor modifications, as previously described ([12], [62]). […] PBMCs (4 × 10^5) pre-activated with PHA-M for 3 days were washed with fresh media to remove excess PHA-M and subsequently infected with HIV-1NL4-3 or HIV-1AD8 or PIs-resistant HIV-1 strains as A3.01 infection. After infection, the infectious media were replaced with fresh media supplemented with international 10 units (IU)/mL of IL-2 and the indicated compounds. At 72 h after infection, the inhibitory effect of the compounds on viral replication was determined by measuring the p24 amount, an HIV capsid protein, using an HIV-1 p24 […] kit (PerkinElmer, Waltham, MA, USA). Cell viability was determined as described above. The inhibitory effects on provirus reversing in J1.1 and J-Lat 6.3 cells were determined as previously described ([12], [41], [63]) with some minor modifications. Briefly, 5 × 10^4 persistently HIV-1-infected J1.1 or J-Lat 6.3 cells were cultured in either the presence or absence of the compounds at a final concentration of 1.5 µM and treated with PMA (50 ng/mL for J1.1 cells, 1 µg/mL for J-Lat 6.3 cells). Two days after treatment, the levels of viral production were determined using p24 […] for J1.1 cells and flow cytometry analysis for GFP-expressing J-Lat 6.3 cells.

[1] = system: HIV-1NL4-3 IRES-eGFP-nef+; assay: eGFP-encoding HIV-1 infection of TZM-bl cells; assay type: cell-based; details: 9, 10, 13 1.5 μM, 20, 21, 22 4 μM, seliciclib 10 µM, triptolide 5 nM, DTG 2 nM, EFV 2 nM, 2 days

Row | SMILES | SI (CC50/EC50) (HIV-1NL4-3) | EC50 (HIV-1NL4-3; p24) | inhibition of viral-expressed eGFP signal [1] | EC50 (HIV-1NL4-3; p24, mean ± SD) | inhibition of viral replication (in words) (HIV-1NL4-3)
1 | CC(C)[C@]12O[C@H]1[C@@H]1O[C@]13[C@]1(O[C@H]1C[C@H]1C4=C(CC[C@@]13C)C(=O)OC4)[C@@H]2O [triptolide, reference compound] | 54.05 | 4.07 ± 2.3 nM | remarkably inhibited | – | –
2 | Cc1[nH]c2ccc(-c3nnc(SCC(=O)N4CCCCC4)o3)cc2c1C [Compound 9, 2-((5-(2,3-Dimethyl-1H-indol-5-yl)-1,3,4-oxadiazol-2-yl)thio)-1-(piperidin-1-yl)ethan-1-one] | 224.40 | – | remarkably inhibited | 250 ± 60 nM | inhibited the viral replication
3 | Cc1[nH]c2ccc(-c3nnc(SCC(=O)N4CCCC4)o3)cc2c1C [Compound 13, 2-((5-(2,3-Dimethyl-1H-indol-5-yl)-1,3,4-oxadiazol-2-yl)thio)-1-(pyrrolidin-1-yl)ethan-1-one] | 93.29 | – | remarkably inhibited | 510 ± 210 nM | inhibited the viral replication
4 | C[C@@H]1CCO[C@H]2Cn3cc(C(=O)NCc4ccc(F)cc4F)c(=O)c(O)c3C(=O)N12 [DTG, dolutegravir, reference compound] | >7,670 | < 1 nM | remarkably inhibited | – | –
5 | O=C1Nc2ccc(Cl)cc2[C@@](C#CC2CC2)(C(F)(F)F)O1 [EFV, efavirenz, reference compound] | >22,740 | < 1 nM | remarkably inhibited | – | –
